Measured values reported in patent EP3741750A1, “4-(1H-1,2,3-TRIAZOL-1-YL)PYRROLIDINE-2-CARBOXYLIC ACID DERIVATIVES HAVING ACTIVITY AGAINST PAIN” (ESTEVE PHARMACEUTICALS, S.A., priority 2019, dated 2020).

Biological target: Human α2δ-1 subunit of Cav2.2 calcium channel (Homo sapiens, UniProt P54289)
Experiment: Human α2δ-1 subunit of Cav2.2 calcium channel assay ([3H]-Gabapentin radioligand binding)
Settings: Human α2δ-1 enriched membranes, 15 nM [3H]-Gabapentin, 60 min at 27 °C
Protocol: Human α2δ-1 subunit of Cav2.2 calcium channel assay
Human α2δ-1 enriched membranes (2.5 µg) were incubated with 15 nM of radiolabeled [3H]-Gabapentin in assay buffer containing Hepes-KOH 10mM, pH 7.4. NSB (non specific binding) was measured by adding 10 µM pregabalin. The binding of the tested compound was measured at either one concentration (% inhibition at 1 or 10 µM) or five different concentrations to determine affinity values (Ki). After 60 min incubation at 27 °C, binding reaction was terminated by filtering through Multiscreen GF/C (Millipore) presoaked in 0.5 % polyethyleneimine in Vacuum Manifold Station, followed by 3 washes with ice-cold filtration buffer containing 50 mM Tris-HCI, pH 7.4. Filter plates were dried at 60 °C for 1 h and 30 µL of scintillation cocktail were added to each well before radioactivity reading. Readings were performed in a Trilux 1450 Microbeta radioactive counter (Perkin Elmer).

Chain of Human α2δ-1 subunit of Cav2.2 calcium channel (P54289 25-1103): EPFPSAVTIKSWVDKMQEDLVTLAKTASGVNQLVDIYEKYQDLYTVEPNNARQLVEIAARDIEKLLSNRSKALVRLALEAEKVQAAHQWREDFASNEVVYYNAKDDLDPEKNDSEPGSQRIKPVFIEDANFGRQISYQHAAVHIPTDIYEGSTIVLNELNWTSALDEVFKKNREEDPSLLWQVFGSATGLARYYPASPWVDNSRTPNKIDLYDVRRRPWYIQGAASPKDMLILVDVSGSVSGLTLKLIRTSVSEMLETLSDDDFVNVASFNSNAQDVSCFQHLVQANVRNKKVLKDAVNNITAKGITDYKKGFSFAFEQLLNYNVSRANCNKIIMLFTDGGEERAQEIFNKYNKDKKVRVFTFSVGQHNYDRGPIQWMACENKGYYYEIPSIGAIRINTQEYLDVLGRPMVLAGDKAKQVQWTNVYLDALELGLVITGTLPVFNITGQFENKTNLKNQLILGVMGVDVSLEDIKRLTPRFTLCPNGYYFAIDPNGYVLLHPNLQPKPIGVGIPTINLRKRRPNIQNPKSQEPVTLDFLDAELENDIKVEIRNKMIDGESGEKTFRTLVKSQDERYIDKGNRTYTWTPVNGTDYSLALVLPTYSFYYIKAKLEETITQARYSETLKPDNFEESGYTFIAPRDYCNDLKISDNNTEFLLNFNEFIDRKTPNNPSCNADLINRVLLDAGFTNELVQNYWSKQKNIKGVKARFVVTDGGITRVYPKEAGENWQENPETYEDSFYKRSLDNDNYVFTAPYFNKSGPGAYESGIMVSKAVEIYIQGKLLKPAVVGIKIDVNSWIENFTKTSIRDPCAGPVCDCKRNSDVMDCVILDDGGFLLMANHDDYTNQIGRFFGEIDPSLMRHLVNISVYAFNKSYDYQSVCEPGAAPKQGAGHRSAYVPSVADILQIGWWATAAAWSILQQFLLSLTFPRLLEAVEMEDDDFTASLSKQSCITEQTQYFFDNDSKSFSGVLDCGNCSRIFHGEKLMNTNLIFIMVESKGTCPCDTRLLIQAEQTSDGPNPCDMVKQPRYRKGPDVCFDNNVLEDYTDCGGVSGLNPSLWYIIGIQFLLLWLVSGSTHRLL

| Compound | Ki |
| --- | --- |
| (2S,4S)-4-(4-(3-((benzylamino)methyl)-5-fluorophenyl)-1H-1,2,3-triazol-1-yl)pyrrolidine-2-carboxylic acid [Example 29] | ≥ 5 µM |
| O=C(O)[C@@H]1C[C@H](n2cc(Cc3cccc(Cl)c3)nn2)CN1 [Example 23, (2S,4S)-4-(4-(3-chlorobenzyl)-1 H-1,2,3-triazol-1-yl)pyrrolidine-2-carboxylic acid] | ≥ 5 µM |
| O=C(O)[C@@H]1C[C@H](n2cc(-c3cc(F)cc(F)c3)nn2)CN1 [Example 15, (2S,4S)-4-(4-(3,5-difluorophenyl)-1H-1,2,3-triazol-1-yl)pyrrolidine-2-carboxylic acid] | ≥ 5 µM |
| O=C(O)[C@@H]1C[C@H](n2cc(Cc3ccc(Cl)cc3)nn2)CN1 [Example 30, (2S,4S)-4-(4-(4-chlorobenzyl)-1 H-1,2,3-triazol-1-yl)pyrrolidine-2-carboxylic acid] | ≥ 5 µM |
| O=C(O)[C@@H]1C[C@H](n2cc(-c3ccncc3)nn2)CN1 [Example 19, (2S,4S)-4-(4-(pyridin-4-yl)-1H-1,2,3-triazol-1-yl)pyrrolidine-2-carboxylic acid] | ≥ 5 µM |
| O=C(O)[C@@H]1C[C@H](n2cc(Cc3ccccc3)nn2)CN1 [Example 16, (2S,4S)-4-(4-benzyl-1H-1,2,3-triazol-1-yl)pyrrolidine-2-carboxylic acid] | ≥ 5 µM |
| O=C(O)[C@@H]1C[C@H](n2cc(-c3cccnc3)nn2)CN1 [Example 18, (2S,4S)-4-(4-(pyridin-3-yl)-1H-1,2,3-triazol-1-yl)pyrrolidine-2-carboxylic acid] | ≥ 5 µM |
| O=C(O)[C@@H]1C[C@H](n2cc(-c3cc(Cl)cc(Cl)c3)nn2)CN1 [Example 27, (2S,4S)-4-(4-(3,5-dichlorophenyl)-1H-1,2,3-triazol-1-yl)pyrrolidine-2-carboxylic acid] | ≥ 5 µM |
| COc1ccccc1-c1cn([C@@H]2CN[C@H](C(=O)O)C2)nn1 [Example 3, (2S,4S)-4-(4-(2-methoxyphenyl)-1H-1,2,3-triazol-1-yl)pyrrolidine-2-carboxylic acid] | ≥ 5 µM |
| COc1ccc(-c2cn([C@@H]3CN[C@H](C(=O)O)C3)nn2)cc1 [Example 6, (2S,4S)-4-(4-(4-methoxyphenyl)-1H-1,2,3-triazol-1-yl)pyrrolidine-2-carboxylic acid] | ≥ 5 µM |
| COc1cccc(-c2cn([C@@H]3CN[C@H](C(=O)O)C3)nn2)c1 [Example 4, (2S,4S)-4-(4-(3-methoxyphenyl)-1H-1,2,3-triazol-1-yl)pyrrolidine-2-carboxylic acid] | ≥ 5 µM |
| COc1ccc(-c2cn([C@@H]3CN[C@H](C(=O)O)C3)nn2)c(Cl)c1 [Example 11, (2S,4S)-4-(4-(2-chloro-4-methoxyphenyl)-1H-1,2,3-triazol-1-yl)pyrrolidine-2-carboxylic acid] | ≥ 5 µM |
| O=C(O)[C@@H]1C[C@H](n2cc(-c3ccc(Cl)cc3Cl)nn2)CN1 [Example 13, (2S,4S)-4-(4-(2,4-dichlorophenyl)-1H-1,2,3-triazol-1-yl)pyrrolidine-2-carboxylic acid] | ≥ 5 µM |
| Cc1cccc(-c2cn([C@@H]3CN[C@H](C(=O)O)C3)nn2)c1 [Example 8, (2S,4S)-4-(4-(m-tolyl)-1H-1,2,3-triazol-1-yl)pyrrolidine-2-carboxylic acid] | ≥ 5 µM |
| CNCc1cc(F)cc(-c2cn([C@@H]3CN[C@H](C(=O)O)C3)nn2)c1 [Example 26, (2S,4S)-4-(4-(3-fluoro-5-((methylamino)methyl)phenyl)-1H-1,2,3-triazol-1-yl)pyrrolidine-2-carboxylic acid] | ≥ 5 µM |
| N#Cc1ccc(-c2cn([C@@H]3CN[C@H](C(=O)O)C3)nn2)cc1 [Example 22, (2S,4S)-4-(4-(4-cyanophenyl)-1H-1,2,3-triazol-1-yl)pyrrolidine-2-carboxylic acid] | ≥ 5 µM |
| CN(Cc1ccccc1)Cc1cc(F)cc(-c2cn([C@@H]3CN[C@H](C(=O)O)C3)nn2)c1 [Example 28, (2S,4S)-4-(4-(3-((benzyl(methyl)amino)methyl)-5-fluorophenyl)-1H-1,2,3-triazol-1-yl)pyrrolidine-2-carboxylic acid] | ≥ 5 µM |
| CN(C)Cc1cc(F)cc(-c2cn([C@@H]3CN[C@H](C(=O)O)C3)nn2)c1 [Example 25, (2S,4S)-4-(4-(3-((dimethylamino)methyl)-5-fluorophenyl)-1 H-1,2,3-triazol-1-yl)pyrrolidine-2-carboxylic acid] | ≥ 5 µM |

Now from value to compound:

| Ki | Compound |
| --- | --- |
| 0.5 to 5 µM | O=C(O)[C@@H]1C[C@H](n2cc(-c3ccc(Cl)c(Cl)c3)nn2)CN1 [Example 14, (2S,4S)-4-(4-(3,4-dichlorophenyl)-1H-1,2,3-triazol-1-yl)pyrrolidine-2-carboxylic acid] |
| < 0.5 µM | O=C(O)[C@@H]1C[C@H](n2cc(-c3cccc(Cl)c3)nn2)CN1 [Example 2, (2S,4S)-4-(4-(3-chlorophenyl)-1H-1,2,3-triazol-1-yl)pyrrolidine-2-carboxylic acid] |
| ≥ 5 µM | N#Cc1cccc(-c2cn([C@@H]3CN[C@H](C(=O)O)C3)nn2)c1 [Example 21, (2S,4S)-4-(4-(3-cyanophenyl)-1H-1,2,3-triazol-1-yl)pyrrolidine-2-carboxylic acid] |
| ≥ 5 µM | O=C(O)[C@@H]1C[C@H](n2cc(-c3cncc(Cl)c3)nn2)CN1 [Example 20, (2S,4S)-4-(4-(5-chloropyridin-3-yl)-1H-1,2,3-triazol-1-yl)pyrrolidine-2-carboxylic acid] |
| < 0.5 µM | O=C(O)[C@@H]1C[C@H](n2cc(-c3ccc(F)c(F)c3)nn2)CN1 [Example 10, (2S,4S)-4-(4-(3,4-difluorophenyl)-1H-1,2,3-triazol-1-yl)pyrrolidine-2-carboxylic acid] |
| < 0.5 µM | O=C(O)[C@@H]1C[C@H](n2cc(-c3cccc(F)c3)nn2)CN1 [Example 1, (2S,4S)-4-(4-(3-Fluorophenyl)-1H-1,2,3-triazol-1-yl)pyrrolidine-2-carboxylic acid] |
| 0.5 to 5 µM | O=C(O)[C@@H]1C[C@H](n2cc(-c3ccccn3)nn2)CN1 [Example 9, (2S,4S)-4-(4-(pyridin-2-yl)-1H-1,2,3-triazol-1-yl)pyrrolidine-2-carboxylic acid] |
| 0.5 to 5 µM | (2S,4S)-4-(4-(4-fluorophenyl)-1 H-1,2,3-triazol-1-yl)pyrrolidine-2-carboxylic acid [Example 5] |
| 0.5 to 5 µM | O=C(O)[C@@H]1C[C@H](n2cc(-c3ccc(Br)cc3)nn2)CN1 [Example 17, (2S,4S)-4-(4-(4-bromophenyl)-1 H-1,2,3-triazol-1-yl)pyrrolidine-2-carboxylic acid] |
| 0.5 to 5 µM | O=C(O)[C@@H]1C[C@H](n2cc(-c3cccc(Br)c3)nn2)CN1 [Example 24, (2S,4S)-4-(4-(3-bromophenyl)-1 H-1,2,3-triazol-1-yl)pyrrolidine-2-carboxylic acid] |
| 0.5 to 5 µM | O=C(O)[C@@H]1C[C@H](n2cc(-c3ccccc3Cl)nn2)CN1 [Example 12, (2S,4S)-4-(4-(2-chlorophenyl)-1 H-1,2,3-triazol-1-yl)pyrrolidine-2-carboxylic acid] |
| 0.5 to 5 µM | O=C(O)[C@@H]1C[C@H](n2cc(-c3ccccc3)nn2)CN1 [Example 7, (2S,4S)-4-(4-phenyl-1H-1,2,3-triazol-1-yl)pyrrolidine-2-carboxylic acid] |
